Values quoted from earlier work in patent publication US20210369631A1, “A LIPID-POLYMER HYBRID NANOPARTICLE” (NANOBRID INNOVATIONS PRIVATE LIMITED, priority 2019, published 2021).

| log P | SMILES |
| --- | --- |
| 3.49 | CCC(=O)O[C@]1(C(=O)CCl)[C@@H](C)C[C@H]2[C@@H]3CCC4=CC(=O)C=C[C@]4(C)[C@@]3(F)[C@@H](O)C[C@@]21C [clobetasol propionate] |
| 10 | COC1=C(OC)C(=O)C(C/C=C(\C)CC/C=C(\C)CC/C=C(\C)CC/C=C(\C)CC/C=C(\C)CC/C=C(\C)CC/C=C(\C)CC/C=C(\C)CC/C=C(\C)CCC=C(C)C)=C(C)C1=O [coenzyme Q10] |
| 1.44 | O=C(CCCCCCC(=O)Nc1ccccc1)NO [Vorinostat] |
